Experimental data reported in patent publication US20090186878A1, “CRYSTALLINE FORMS OF A FARNESYL DIBENZODIAZEPINONE” (THALLION PHARMACEUTICALS INC., priority 2006, published 2009).
Converted amounts (≈) assume the structure as drawn.

Columns and labels:
[1] = Thermal treatment (annealing/drying) of crystals, check for decomposition; assay type: physicochemical; conditions: heated at 60, 70, 80, 90 or 100° C. under air atmosphere; by 1H NMR, TGA, XRPD and solubility
Method: Crystal Form III was produced by annealing of either Form I or Form II crystals using a variety of temperatures and under various conditions such as air or inert atmosphere or under reduced pressure.
A sample of Compound 1 crystals of Form II (1 mg to 30 g) was dried for 6 hours in an oven at an isothermal 60° C. temperature under reduced pressure (1-4 Torr) using an Edwards RV8 pump (or in a vacuum oven). Sample was allowed to cool to room temperature and crystal Form III obtained was analyzed as described in Examples 3, 4, 5 and 6.
Annealing process was done above the temperature of solvent elimination. No degradation was observed up to 160° C. when crystals were annealed under nitrogen or under reduced pressure. Annealing was also shown to proceed slowly at temperatures as low as 50° C.
As an example, when temperatures of 60, 70 and 90° C. were used, subsequent DSC analysis gave melting points respectively of 185.5, 184.5 and 183.4° C., and a mass enthalpy respectively of 84.6, 66.8 and 64.9 J/g. A slight degradation (less than 4%) was observed (NMR and solubility) when a temperature of 120° C. was used (melting point of 174° C., mass enthalpy of 39.7 J/g) under air atmosphere.

[2] = Solubility determination in water (HPLC-MS of saturated aqueous solutions); assay type: physicochemical; conditions: for Solubility: in water, ambient temperature, after 24 hours, not at equilibrium, supernatant by HPLC-MS, LOD 10 ng/mL
Method: The drug solubility of a sample of each of crystal Form I and Form II and two samples of Form III (obtained from drying of Form I and Form II) was evaluated in water using an HPLC-MS method (High performance liquid chromatography apparatus coupled to a mass spectrometer). Saturated aqueous solutions of the crystals were stirred and kept at ambient temperature for 24 hours. Solutions were centrifuged at 3600 rpm and an aliquot of supernatant was analyzed by HPLC-MS.

SMILES | Decomposition on transformation to Form III [1] | Solubility [2] | Relative (thermodynamic) stability judged from solubility ([2]; from Table 3 water solubility)
CC(C)=CCC/C(C)=C/CC/C(C)=C/CN1C(=O)c2cccc(O)c2Nc2c(O)cc(O)cc21 [Form I (MeOH/water)] | without observable decomposition | 6.59 µg/mL (≈ 14.2 µM) | –
CC(C)=CCC/C(C)=C/CC/C(C)=C/CN1C(=O)c2cccc(O)c2Nc2c(O)cc(O)cc21 [Form II (EtOH/water)] | without observable decomposition | 3.98 µg/mL (≈ 8.6 µM) | –
CC(C)=CCC/C(C)=C/CC/C(C)=C/CN1C(=O)c2cccc(O)c2Nc2c(O)cc(O)cc21 [Form III (annealed Form I)] | – | 0.65 µg/mL (≈ 1.41 µM) | –
CC(C)=CCC/C(C)=C/CC/C(C)=C/CN1C(=O)c2cccc(O)c2Nc2c(O)cc(O)cc21 [Form III (annealed Form II)] | – | <LOD* | –
CC(C)=CCC/C(C)=C/CC/C(C)=C/CN1C(=O)c2cccc(O)c2Nc2c(O)cc(O)cc21 [Form III] | – | – | clearly more stable than crystal Forms I and II
